Assay results taken from PubChem BioAssay AID1259407 (Chemical Carcinogenesis Research Information System (CCRIS), 2018).
Calls of active or inactive are those of the source. The rule behind the calls is not given here.

Tested on: CCRIS mutagenicity, Ames/micronucleus/aberration tests
Assay: CCRIS mutagenicity studies
[1] = Test System: AMES SALMONELLA TYPHIMURIUM, Strain/Indicator: TA98, Metabolic Activation: NONE, Method: STANDARD PLATE
[2] = Test System: AMES SALMONELLA TYPHIMURIUM, Strain/Indicator: TA98, Metabolic Activation: RAT, LIVER, S-9, AROCLOR 1254, Method: STANDARD PLATE
[3] = Test System: AMES SALMONELLA TYPHIMURIUM, Strain/Indicator: TA100, Metabolic Activation: NONE, Method: STANDARD PLATE
[4] = Test System: AMES SALMONELLA TYPHIMURIUM, Strain/Indicator: TA100, Metabolic Activation: RAT, LIVER, S-9, AROCLOR 1254, Method: STANDARD PLATE
[5] = Test System: AMES SALMONELLA TYPHIMURIUM, Strain/Indicator: TA102, Metabolic Activation: NONE, Method: STANDARD PLATE
[6] = Test System: AMES SALMONELLA TYPHIMURIUM, Strain/Indicator: TA102, Metabolic Activation: RAT, LIVER, S-9, AROCLOR 1254, Method: STANDARD PLATE
[7] = Test System: AMES SALMONELLA TYPHIMURIUM, Strain/Indicator: TA98, Metabolic Activation: HAMSTER, LIVER, S-9, AROCLOR 1254 (10%), Method: PREINCUBATION
[8] = Test System: AMES SALMONELLA TYPHIMURIUM, Strain/Indicator: TA98, Metabolic Activation: NONE, Method: PREINCUBATION
[9] = Test System: AMES SALMONELLA TYPHIMURIUM, Strain/Indicator: TA98, Metabolic Activation: RAT, LIVER, S-9, AROCLOR 1254 (10%), Method: PREINCUBATION
[10] = Test System: AMES SALMONELLA TYPHIMURIUM, Strain/Indicator: TA100, Metabolic Activation: HAMSTER, LIVER, S-9, AROCLOR 1254 (10%), Method: PREINCUBATION
[11] = Test System: AMES SALMONELLA TYPHIMURIUM, Strain/Indicator: TA100, Metabolic Activation: NONE, Method: PREINCUBATION
[12] = Test System: AMES SALMONELLA TYPHIMURIUM, Strain/Indicator: TA100, Metabolic Activation: RAT, LIVER, S-9, AROCLOR 1254 (10%), Method: PREINCUBATION
[13] = Test System: AMES SALMONELLA TYPHIMURIUM, Strain/Indicator: TA1535, Metabolic Activation: HAMSTER, LIVER, S-9, AROCLOR 1254 (10%), Method: PREINCUBATION
[14] = Test System: AMES SALMONELLA TYPHIMURIUM, Strain/Indicator: TA1535, Metabolic Activation: NONE, Method: PREINCUBATION
[15] = Test System: AMES SALMONELLA TYPHIMURIUM, Strain/Indicator: TA1535, Metabolic Activation: RAT, LIVER, S-9, AROCLOR 1254 (10%), Method: PREINCUBATION
[16] = Test System: AMES SALMONELLA TYPHIMURIUM, Strain/Indicator: TA1535, Metabolic Activation: NONE, Method: STANDARD PLATE
[17] = Test System: AMES SALMONELLA TYPHIMURIUM, Strain/Indicator: TA1535, Metabolic Activation: RAT, LIVER, S-9, AROCLOR 1254, Method: STANDARD PLATE
[18] = Test System: AMES SALMONELLA TYPHIMURIUM, Strain/Indicator: TA1537, Metabolic Activation: NONE, Method: STANDARD PLATE
[19] = Test System: AMES SALMONELLA TYPHIMURIUM, Strain/Indicator: TA1537, Metabolic Activation: RAT, LIVER, S-9, AROCLOR 1254, Method: STANDARD PLATE

`COC(=O)Nc1nc2ccc(Sc3ccccc3)cc2[nH]1` was tested, and the mutagenic call (Test System: AMES SALMONELLA TYPHIMURIUM, Strain/Indicator: TA97, Metabolic Activation: NONE, Method: STANDARD PLATE) was “inactive; negative”, the mutagenic call (Test System: AMES SALMONELLA TYPHIMURIUM, Strain/Indicator: TA97, Metabolic Activation: RAT, LIVER, S-9, AROCLOR 1254, Method: STANDARD PLATE) was “inactive; negative” and the mutagenic call [1] was “inactive; negative”. The mutagenic call [2] was “inactive; negative”, the mutagenic call [3] was “inactive; negative” and the mutagenic call [4] was “inactive; negative”. The mutagenic call [5] was “inactive; negative” and the mutagenic call [6] was “inactive; negative”.

For `[CH3][Sn]([CH3])([Cl])[Cl]`, the mutagenic call (Test System: AMES SALMONELLA TYPHIMURIUM, Strain/Indicator: TA98, Metabolic Activation: NONE, Method: SUSPENSION/PLATE) was “inactive; negative” and the mutagenic call (Test System: AMES SALMONELLA TYPHIMURIUM, Strain/Indicator: TA100, Metabolic Activation: NONE, Method: SUSPENSION/PLATE) was “inactive; negative”.

`COc1cc(N)ccc1NC(C)=O` was tested, and the mutagenic call [1] was “inactive; negative” and the mutagenic call [2] was “active; positive”.

For `Cc1cc(C)c2ccc3ccccc3c2c1`, the mutagenic call [1] was “inactive; negative”, the mutagenic call [2] was “active; positive” and the mutagenic call [3] was “inactive; negative”. The mutagenic call [4] was “active; positive”.

With `CC(C)CN(CC(C)C)CC(C)C` the mutagenic call [7] was “inactive; negative”, the mutagenic call [8] was “inactive; negative” and the mutagenic call [9] was “inactive; negative”. The mutagenic call [10] was “inactive; negative”, the mutagenic call [11] was “inactive; negative” and the mutagenic call [12] was “inactive; negative”. For the same compound, the mutagenic call [13] was “inactive; negative”, the mutagenic call [14] was “inactive; negative” and the mutagenic call [15] was “inactive; negative”. For the same compound, the mutagenic call (Test System: AMES SALMONELLA TYPHIMURIUM, Strain/Indicator: TA1537, Metabolic Activation: HAMSTER, LIVER, S-9, AROCLOR 1254 (10%), Method: PREINCUBATION) was “inactive; negative”, the mutagenic call (Test System: AMES SALMONELLA TYPHIMURIUM, Strain/Indicator: TA1537, Metabolic Activation: NONE, Method: PREINCUBATION) was “inactive; negative” and the mutagenic call (Test System: AMES SALMONELLA TYPHIMURIUM, Strain/Indicator: TA1537, Metabolic Activation: RAT, LIVER, S-9, AROCLOR 1254 (10%), Method: PREINCUBATION) was “inactive; negative”.

In the case of `Nc1ccc2cccnc2c1`, the mutagenic call [8] is reported as “inactive; negative”, the mutagenic call (Test System: AMES SALMONELLA TYPHIMURIUM, Strain/Indicator: TA98, Metabolic Activation: RAT, LIVER, S-9, KANECHLOR 500 OR PHENOBARBITAL AND BETA-NAPHTHOFLAVONE, Method: PREINCUBATION) is reported as “active; positive” and the mutagenic call [11] is reported as “active; positive”. The mutagenic call (Test System: AMES SALMONELLA TYPHIMURIUM, Strain/Indicator: TA100, Metabolic Activation: RAT, LIVER, S-9, KANECHLOR 500 OR PHENOBARBITAL AND BETA-NAPHTHOFLAVONE, Method: PREINCUBATION) was “active; positive”.

In the case of `Cc1cc2c(C(C)C)c(O)c(O)c(C=O)c2c(O)c1-c1c(C)cc2c(C(C)C)c(O)c(O)c(C=O)c2c1O`, the mutagenic call [1] is reported as “inactive; negative”, the mutagenic call (Test System: AMES SALMONELLA TYPHIMURIUM, Strain/Indicator: TA98, Metabolic Activation: RAT, LIVER, S-9, AROCLOR 1254 OR PHENOBARBITAL, Method: STANDARD PLATE) is reported as “inactive; negative” and the mutagenic call [3] is reported as “inactive; negative”. For the same compound, the mutagenic call (Test System: AMES SALMONELLA TYPHIMURIUM, Strain/Indicator: TA100, Metabolic Activation: RAT, LIVER, S-9, AROCLOR 1254 OR PHENOBARBITAL, Method: STANDARD PLATE) was “inactive; negative”.

With `O=C(O)c1cc(O)c2c(c1)C(=O)c1cccc(O)c1C2=O` the mutagenic call (Test System: AMES SALMONELLA TYPHIMURIUM, Strain/Indicator: TA97A, Metabolic Activation: NONE, Method: STANDARD PLATE) was “inactive; negative”, the mutagenic call (Test System: AMES SALMONELLA TYPHIMURIUM, Strain/Indicator: TA97A, Metabolic Activation: RAT, LIVER, S-9, AROCLOR 1254, Method: STANDARD PLATE) was “inactive; negative” and the mutagenic call [1] was “inactive; negative”. For the same compound, the mutagenic call [2] was “inactive; negative”, the mutagenic call [3] was “inactive; negative” and the mutagenic call [4] was “inactive; negative”. The mutagenic call [5] was “inactive; negative”, the mutagenic call [6] was “inactive; negative” and the mutagenic call [16] was “inactive; negative”. For the same compound, the mutagenic call [17] was “inactive; negative”, the mutagenic call [18] was “inactive; negative” and the mutagenic call [19] was “inactive; negative”. For the same compound, the mutagenic call (Test System: AMES SALMONELLA TYPHIMURIUM, Strain/Indicator: TA1538, Metabolic Activation: NONE, Method: STANDARD PLATE) was “inactive; negative”, the mutagenic call (Test System: AMES SALMONELLA TYPHIMURIUM, Strain/Indicator: TA1538, Metabolic Activation: RAT, LIVER, S-9, AROCLOR 1254, Method: STANDARD PLATE) was “inactive; negative” and the mutagenic call (Test System: Ames Salmonella typhimurium, Strain/Indicator: TA102, Metabolic Activation: None, Method: Preincubation) was “active; positive”. The mutagenic call (Test System: Ames Salmonella typhimurium, Strain/Indicator: TA102, Metabolic Activation: Rat, Liver, S-9, Aroclor 1254 in 0.154 M KCl, Method: Preincubation) was “active; positive”, the mutagenic call (Test System: MOUSE LYMPHOMA, Strain/Indicator: L5178Y (TK+/TK-), Metabolic Activation: NONE, Method: SUSPENSION/PLATE) was “inactive; negative” and the mutagenic call (Test System: MOUSE LYMPHOMA, Strain/Indicator: L5178Y (TK+/TK-), Metabolic Activation: RAT, LIVER, S-9, AROCLOR 1254, Method: SUSPENSION/PLATE) was “inactive; negative”.

`CN(C)c1ccc(NS(=O)(=O)c2cccc3cccnc23)cc1` was tested, and the mutagenic call [1] was “inactive; negative”, the mutagenic call [2] was “active; positive” and the mutagenic call [3] was “inactive; negative”. For the same compound, the mutagenic call [4] was “active; positive”, the mutagenic call [16] was “inactive; negative” and the mutagenic call [17] was “inactive; negative”. The mutagenic call [18] was “inactive; negative” and the mutagenic call [19] was “inactive; negative”.

With `O=C(Cl)CCl` the mutagenic call (End Point: IN VITRO CHROMOSOMAL ABERRATIONS, Test System: CHINESE HAMSTER LUNG (CHL), Metabolic Activation: NONE) was “inactive; negative” and the mutagenic call (End Point: IN VITRO CHROMOSOMAL ABERRATIONS, Test System: CHINESE HAMSTER LUNG (CHL), Metabolic Activation: RAT, LIVER, S-9, KC-400) was “inactive; negative”.

`CCN(CC)c1cccc(O)c1` was tested, and the mutagenic call (Test System: AMES SALMONELLA TYPHIMURIUM, Strain/Indicator: TA97, Metabolic Activation: HAMSTER, LIVER, S-9, AROCLOR 1254 (10%), Method: PREINCUBATION) was “active; positive”, the mutagenic call (Test System: AMES SALMONELLA TYPHIMURIUM, Strain/Indicator: TA97, Metabolic Activation: NONE, Method: PREINCUBATION) was “inactive; negative” and the mutagenic call (Test System: AMES SALMONELLA TYPHIMURIUM, Strain/Indicator: TA97, Metabolic Activation: RAT, LIVER, S-9, AROCLOR 1254 (10%), Method: PREINCUBATION) was “active; positive”. For the same compound, the mutagenic call [7] was “active; positive”, the mutagenic call [8] was “inactive; negative” and the mutagenic call [9] was “active; positive”. The mutagenic call [10] was “active; positive”, the mutagenic call [11] was “inactive; negative” and the mutagenic call [12] was “inactive; negative”. For the same compound, the mutagenic call [13] was “inactive; negative”, the mutagenic call [14] was “inactive; negative” and the mutagenic call [15] was “inactive; negative”.
